Converted amounts (≈) assume the structure as drawn.
How the values were obtained:
Format in all cases: functional
Pseudomonas aeruginosa [1] = test: Antibacterial activity against Pseudomonas aeruginosa NCIM 2036 measured after 8 hrs by spectrophotometric method; conditions: NCIM 2036, 8 h
Staphylococcus aureus [2] = test: Antibacterial activity against Staphylococcus aureus NCIM 2079 measured after 12 hrs by spectrophotometric method; conditions: NCIM 2079, 12 h
Escherichia coli [3] = test: Antibacterial activity against Escherichia coli NCIM 2688 measured after 8 hrs by spectrophotometric method; conditions: NCIM 2688, 8 h
Bacillus subtilis [4] = test: Antibacterial activity against Bacillus subtilis NCIM 2010 measured after 12 hrs by spectrophotometric method; conditions: NCIM 2010, 12 h
[5] = test system: Mycobacterium tuberculosis; test: Antitubercular activity against dormant stage Mycobacterium tuberculosis H37Ra measured after 12 days by XTT assay; conditions: 288 h
Escherichia coli [6] = test: Antibacterial activity against Escherichia coli NCIM 2688 at 30 ug/ml measured after 8 hrs by spectrophotometric method; conditions: NCIM 2688, 8 h
Escherichia coli [7] = test: Antibacterial activity against Escherichia coli NCIM 2688 at 10 ug/ml measured after 8 hrs by spectrophotometric method; conditions: NCIM 2688, 8 h
Escherichia coli [8] = test: Antibacterial activity against Escherichia coli NCIM 2688 at 3 ug/ml measured after 8 hrs by spectrophotometric method; conditions: NCIM 2688, 8 h
Pseudomonas aeruginosa [9] = test: Antibacterial activity against Pseudomonas aeruginosa NCIM 2036 at 30 ug/ml measured after 8 hrs by spectrophotometric method; conditions: NCIM 2036, 8 h
Pseudomonas aeruginosa [10] = test: Antibacterial activity against Pseudomonas aeruginosa NCIM 2036 at 10 ug/ml measured after 8 hrs by spectrophotometric method; conditions: NCIM 2036, 8 h
Pseudomonas aeruginosa [11] = test: Antibacterial activity against Pseudomonas aeruginosa NCIM 2036 at 3 ug/ml measured after 8 hrs by spectrophotometric method; conditions: NCIM 2036, 8 h
Staphylococcus aureus [12] = test: Antibacterial activity against Staphylococcus aureus NCIM 2079 at 30 ug/ml measured after 12 hrs by spectrophotometric method; conditions: NCIM 2079, 12 h
Staphylococcus aureus [13] = test: Antibacterial activity against Staphylococcus aureus NCIM 2079 at 10 ug/ml measured after 12 hrs by spectrophotometric method; conditions: NCIM 2079, 12 h
Staphylococcus aureus [14] = test: Antibacterial activity against Staphylococcus aureus NCIM 2079 at 3 ug/ml measured after 12 hrs by spectrophotometric method; conditions: NCIM 2079, 12 h
Bacillus subtilis [15] = test: Antibacterial activity against Bacillus subtilis NCIM 2010 at 30 ug/ml measured after 12 hrs by spectrophotometric method; conditions: NCIM 2010, 12 h
Bacillus subtilis [16] = test: Antibacterial activity against Bacillus subtilis NCIM 2010 at 10 ug/ml measured after 12 hrs by spectrophotometric method; conditions: NCIM 2010, 12 h
Bacillus subtilis [17] = test: Antibacterial activity against Bacillus subtilis NCIM 2010 at 3 ug/ml measured after 12 hrs by spectrophotometric method; conditions: NCIM 2010, 12 h
[18] = test system: Mycobacterium tuberculosis; test: Antitubercular activity against dormant stage Mycobacterium tuberculosis H37Ra at 30 ug/ml measured after 12 days by XTT assay; conditions: 288 h
[19] = test system: Mycobacterium tuberculosis; test: Antitubercular activity against dormant stage Mycobacterium tuberculosis H37Ra at 10 ug/ml measured after 12 days by XTT assay; conditions: 288 h
[20] = test system: Mycobacterium tuberculosis; test: Antitubercular activity against dormant stage Mycobacterium tuberculosis H37Ra at 3 ug/ml measured after 12 days by XTT assay; conditions: 288 h

Structure (SMILES): O=C(NC[C@H]1CN(c2ccc(N3CC4(COC4)C3)c(F)c2)C(=O)O1)Nc1ccc(Cl)cc1
- IC50 (Pseudomonas aeruginosa [1]): > 100 µg/mL
- MIC (Pseudomonas aeruginosa [1]): > 100 µg/mL
- IC50 (Staphylococcus aureus [2]): > 100 µg/mL
- MIC (Staphylococcus aureus [2]): > 100 µg/mL
- IC50 (Escherichia coli [3]): > 100 µg/mL
- MIC (Escherichia coli [3]): > 100 µg/mL
- IC50 (Bacillus subtilis [4]): > 100 µg/mL
- MIC (Bacillus subtilis [4]): > 100 µg/mL
- IC50 [5]: > 100 µg/mL
- MIC [5]: > 100 µg/mL
- inhibition at 30 µg/mL (Escherichia coli [6]): 59.1%
- inhibition at 10 µg/mL (Escherichia coli [7]): 31.9%
- inhibition at 3 µg/mL (Escherichia coli [8]): 7.39%
- inhibition at 30 µg/mL (Pseudomonas aeruginosa [9]): 62%
- inhibition at 10 µg/mL (Pseudomonas aeruginosa [10]): 33.1%
- inhibition at 3 µg/mL (Pseudomonas aeruginosa [11]): 12.4%
- inhibition at 30 µg/mL (Staphylococcus aureus [12]): 62.1%
- inhibition at 10 µg/mL (Staphylococcus aureus [13]): 57.3%
- inhibition at 3 µg/mL (Staphylococcus aureus [14]): 47.4%
- inhibition at 30 µg/mL (Bacillus subtilis [15]): 65%
- inhibition at 10 µg/mL (Bacillus subtilis [16]): 63.6%
- inhibition at 3 µg/mL (Bacillus subtilis [17]): 59.6%
- inhibition at 30 µg/mL [18]: 30.2%
- inhibition at 10 µg/mL [19]: 25.6%
- inhibition at 3 µg/mL [20]: 6.78%

Structure (SMILES): CC(=O)N1CCC2(C1)CN(c1ccc(N3CCOCC3)c(F)c1)C(=O)O2 (stereo not given)
- IC50 (Pseudomonas aeruginosa [1]): > 100 µg/mL
- MIC (Pseudomonas aeruginosa [1]): > 100 µg/mL
- IC50 (Staphylococcus aureus [2]): > 100 µg/mL
- MIC (Staphylococcus aureus [2]): > 100 µg/mL
- IC50 (Escherichia coli [3]): > 100 µg/mL
- MIC (Escherichia coli [3]): > 100 µg/mL
- IC50 (Bacillus subtilis [4]): > 100 µg/mL
- MIC (Bacillus subtilis [4]): > 100 µg/mL
- IC50 [5]: > 100 µg/mL
- MIC [5]: > 100 µg/mL
- inhibition at 30 µg/mL (Escherichia coli [6]): 46%
- inhibition at 10 µg/mL (Escherichia coli [7]): 42%
- inhibition at 3 µg/mL (Escherichia coli [8]): 36.2%
- inhibition at 30 µg/mL (Pseudomonas aeruginosa [9]): 56.2%
- inhibition at 10 µg/mL (Pseudomonas aeruginosa [10]): 48.4%
- inhibition at 3 µg/mL (Pseudomonas aeruginosa [11]): 42.8%
- inhibition at 30 µg/mL (Staphylococcus aureus [12]): 53.6%
- inhibition at 10 µg/mL (Staphylococcus aureus [13]): 50.2%
- inhibition at 3 µg/mL (Staphylococcus aureus [14]): 45.2%
- inhibition at 30 µg/mL (Bacillus subtilis [15]): 42.2%
- inhibition at 10 µg/mL (Bacillus subtilis [16]): 32.2%
- inhibition at 3 µg/mL (Bacillus subtilis [17]): 23.9%
- inhibition at 30 µg/mL [18]: 12%
- inhibition at 10 µg/mL [19]: -8.05%
- inhibition at 3 µg/mL [20]: 19.7%

Structure (SMILES): O=C1O[C@@H](CNC(=S)Nc2ccc([N+](=O)[O-])cc2)CN1c1ccc(N2CC3(COC3)C2)c(F)c1
- IC50 (Pseudomonas aeruginosa [1]): > 100 µg/mL
- MIC (Pseudomonas aeruginosa [1]): > 100 µg/mL
- IC50 (Staphylococcus aureus [2]): > 100 µg/mL
- MIC (Staphylococcus aureus [2]): > 100 µg/mL
- IC50 (Escherichia coli [3]): > 100 µg/mL
- MIC (Escherichia coli [3]): > 100 µg/mL
- IC50 (Bacillus subtilis [4]): > 100 µg/mL
- MIC (Bacillus subtilis [4]): > 100 µg/mL
- IC50 [5]: > 100 µg/mL
- MIC [5]: > 100 µg/mL
- inhibition at 30 µg/mL (Escherichia coli [6]): 65.5%
- inhibition at 10 µg/mL (Escherichia coli [7]): 61%
- inhibition at 3 µg/mL (Escherichia coli [8]): 51.8%
- inhibition at 30 µg/mL (Pseudomonas aeruginosa [9]): 73.6%
- inhibition at 10 µg/mL (Pseudomonas aeruginosa [10]): 41.8%
- inhibition at 3 µg/mL (Pseudomonas aeruginosa [11]): 9.11%
- inhibition at 30 µg/mL (Staphylococcus aureus [12]): 81%
- inhibition at 10 µg/mL (Staphylococcus aureus [13]): 74.5%
- inhibition at 3 µg/mL (Staphylococcus aureus [14]): 66.7%
- inhibition at 30 µg/mL (Bacillus subtilis [15]): 80.4%
- inhibition at 10 µg/mL (Bacillus subtilis [16]): 76.2%
- inhibition at 3 µg/mL (Bacillus subtilis [17]): 62.7%
- inhibition at 30 µg/mL [18]: -13.5%
- inhibition at 10 µg/mL [19]: 4.66%
- inhibition at 3 µg/mL [20]: 9.41%

Structure (SMILES): CC(C)(C)NC(=S)NC[C@H]1CN(c2ccc(N3CC4(COC4)C3)c(F)c2)C(=O)O1
- IC50 (Pseudomonas aeruginosa [1]): > 100 µg/mL
- MIC (Pseudomonas aeruginosa [1]): > 100 µg/mL
- IC50 (Staphylococcus aureus [2]): 1.45 µg/mL (≈ 3.43 µM)
- MIC (Staphylococcus aureus [2]): 9.15 µg/mL (≈ 21.7 µM)
- IC50 (Escherichia coli [3]): 1.38 µg/mL (≈ 3.27 µM)
- MIC (Escherichia coli [3]): 22.8 µg/mL (≈ 53.9 µM)
- IC50 (Bacillus subtilis [4]): > 100 µg/mL
- MIC (Bacillus subtilis [4]): > 100 µg/mL
- IC50 [5]: > 100 µg/mL
- MIC [5]: > 100 µg/mL
- inhibition at 30 µg/mL (Escherichia coli [6]): 100%
- inhibition at 10 µg/mL (Escherichia coli [7]): 84%
- inhibition at 3 µg/mL (Escherichia coli [8]): 75.7%
- inhibition at 30 µg/mL (Pseudomonas aeruginosa [9]): 62.7%
- inhibition at 10 µg/mL (Pseudomonas aeruginosa [10]): 37.5%
- inhibition at 3 µg/mL (Pseudomonas aeruginosa [11]): 0%
- inhibition at 30 µg/mL (Staphylococcus aureus [12]): 98.9%
- inhibition at 10 µg/mL (Staphylococcus aureus [13]): 90.4%
- inhibition at 3 µg/mL (Staphylococcus aureus [14]): 82.1%
- inhibition at 30 µg/mL (Bacillus subtilis [15]): 97.2%
- inhibition at 10 µg/mL (Bacillus subtilis [16]): 79.3%
- inhibition at 3 µg/mL (Bacillus subtilis [17]): 66.3%
- inhibition at 30 µg/mL [18]: -6.69%
- inhibition at 10 µg/mL [19]: -3.66%
- inhibition at 3 µg/mL [20]: 9.56%

Structure (SMILES): O=C1O[C@@H](CNS(=O)(=O)c2ccc(Cl)s2)CN1c1ccc(N2CC3(COC3)C2)c(F)c1
- IC50 (Pseudomonas aeruginosa [1]): 1.13 µg/mL (≈ 2.32 µM)
- MIC (Pseudomonas aeruginosa [1]): 3.52 µg/mL (≈ 7.21 µM)
- IC50 (Staphylococcus aureus [2]): 0.46 µg/mL (≈ 0.943 µM)
- MIC (Staphylococcus aureus [2]): 1.31 µg/mL (≈ 2.68 µM)
- IC50 (Escherichia coli [3]): 0.89 µg/mL (≈ 1.82 µM)
- MIC (Escherichia coli [3]): 15.4 µg/mL (≈ 31.6 µM)
- IC50 (Bacillus subtilis [4]): 0.64 µg/mL (≈ 1.31 µM)
- MIC (Bacillus subtilis [4]): 2.2 µg/mL (≈ 4.51 µM)
- IC50 [5]: > 100 µg/mL
- MIC [5]: > 100 µg/mL
- inhibition at 30 µg/mL (Escherichia coli [6]): 97.8%
- inhibition at 10 µg/mL (Escherichia coli [7]): 87.4%
- inhibition at 3 µg/mL (Escherichia coli [8]): 80.3%
- inhibition at 30 µg/mL (Pseudomonas aeruginosa [9]): 99%
- inhibition at 10 µg/mL (Pseudomonas aeruginosa [10]): 97.1%
- inhibition at 3 µg/mL (Pseudomonas aeruginosa [11]): 86.6%
- inhibition at 30 µg/mL (Staphylococcus aureus [12]): 96.9%
- inhibition at 10 µg/mL (Staphylococcus aureus [13]): 96.5%
- inhibition at 3 µg/mL (Staphylococcus aureus [14]): 94.3%
- inhibition at 30 µg/mL (Bacillus subtilis [15]): 99.2%
- inhibition at 10 µg/mL (Bacillus subtilis [16]): 97.2%
- inhibition at 3 µg/mL (Bacillus subtilis [17]): 90%
- inhibition at 30 µg/mL [18]: 74.6%
- inhibition at 10 µg/mL [19]: -6.64%
- inhibition at 3 µg/mL [20]: -14.5%

Structure (SMILES): O=C1OC2(CCNC2)CN1c1ccc(N2CCOCC2)c(F)c1 (stereo not given)
- IC50 (Pseudomonas aeruginosa [1]): > 100 µg/mL
- MIC (Pseudomonas aeruginosa [1]): > 100 µg/mL
- IC50 (Staphylococcus aureus [2]): > 100 µg/mL
- MIC (Staphylococcus aureus [2]): > 100 µg/mL
- IC50 (Escherichia coli [3]): 4.44 µg/mL (≈ 13.8 µM)
- MIC (Escherichia coli [3]): 0.554 µg/mL (≈ 1.72 µM)
- IC50 (Bacillus subtilis [4]): > 100 µg/mL
- MIC (Bacillus subtilis [4]): > 100 µg/mL
- IC50 [5]: > 100 µg/mL
- MIC [5]: > 100 µg/mL
- inhibition at 30 µg/mL (Escherichia coli [6]): 99.8%
- inhibition at 10 µg/mL (Escherichia coli [7]): 96.2%
- inhibition at 3 µg/mL (Escherichia coli [8]): 86.4%
- inhibition at 30 µg/mL (Pseudomonas aeruginosa [9]): 36.2%
- inhibition at 10 µg/mL (Pseudomonas aeruginosa [10]): 32.2%
- inhibition at 3 µg/mL (Pseudomonas aeruginosa [11]): 22.6%
- inhibition at 30 µg/mL (Staphylococcus aureus [12]): 50.2%
- inhibition at 10 µg/mL (Staphylococcus aureus [13]): 46.8%
- inhibition at 3 µg/mL (Staphylococcus aureus [14]): 36.2%
- inhibition at 30 µg/mL (Bacillus subtilis [15]): 32.2%
- inhibition at 10 µg/mL (Bacillus subtilis [16]): 21.5%
- inhibition at 3 µg/mL (Bacillus subtilis [17]): 8.05%
- inhibition at 30 µg/mL [18]: 49.3%
- inhibition at 10 µg/mL [19]: 17%
- inhibition at 3 µg/mL [20]: 13.6%

Source: ChEMBL document CHEMBL3865816, “Design, synthesis and biological evaluation of novel azaspiro analogs of linezolid as antibacterial and antitubercular agents” (Eur J Med Chem, 2016)
